Experimental findings from US6525065B1, “Pharmaceutical compositions and methods for effecting dopamine release” (priority 1997, dated 2003) are described below.

Where a name gives a salt, the structure may show the parent alone. Read-outs that look alike come from different tables or passages of the source.

The test system of one assay is dopamine release. The assay can be described thus: cells. Format: cell-based. The settings on record: for EC50: read-out: Dopamine Release EC50; for Dopamine Release Ecmax: amount released relative to (S)-(-)-nicotine on a percentage basis.
Assay [1] has as its target T1, muscle-type nicotinic acetylcholine receptors (Homo sapiens, UniProt P02708+P07510+Q07001).
T1 construct: endogenous in cells; host or cells: TE671/RD (own knowledge of the cited US 5,597,919)
The assay can be described thus: cell-based.

In assay [2] the target is ganglionic-type nicotinic acetylcholine receptors (Rattus norvegicus, UniProt P04757+P12392). The experiment in a line: cell-based. The conditions noted are these: read-out: Ganglion Effect Ecmax.
Sequence of ganglionic-type nicotinic acetylcholine receptors (P04757 26-499): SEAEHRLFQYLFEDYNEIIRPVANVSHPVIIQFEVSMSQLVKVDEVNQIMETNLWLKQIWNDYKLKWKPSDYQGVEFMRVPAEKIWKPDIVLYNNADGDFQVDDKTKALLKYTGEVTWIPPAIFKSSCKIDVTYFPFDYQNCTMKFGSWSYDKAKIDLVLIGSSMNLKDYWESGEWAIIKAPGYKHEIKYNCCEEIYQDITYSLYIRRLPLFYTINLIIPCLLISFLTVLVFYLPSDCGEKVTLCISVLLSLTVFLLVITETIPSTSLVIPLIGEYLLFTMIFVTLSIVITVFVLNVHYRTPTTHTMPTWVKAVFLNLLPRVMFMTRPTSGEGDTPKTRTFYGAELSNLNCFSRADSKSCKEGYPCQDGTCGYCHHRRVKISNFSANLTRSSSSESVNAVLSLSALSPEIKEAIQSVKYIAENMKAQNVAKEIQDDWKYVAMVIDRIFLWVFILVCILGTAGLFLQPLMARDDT
Sequence of ganglionic-type nicotinic acetylcholine receptors (P12392 21-495): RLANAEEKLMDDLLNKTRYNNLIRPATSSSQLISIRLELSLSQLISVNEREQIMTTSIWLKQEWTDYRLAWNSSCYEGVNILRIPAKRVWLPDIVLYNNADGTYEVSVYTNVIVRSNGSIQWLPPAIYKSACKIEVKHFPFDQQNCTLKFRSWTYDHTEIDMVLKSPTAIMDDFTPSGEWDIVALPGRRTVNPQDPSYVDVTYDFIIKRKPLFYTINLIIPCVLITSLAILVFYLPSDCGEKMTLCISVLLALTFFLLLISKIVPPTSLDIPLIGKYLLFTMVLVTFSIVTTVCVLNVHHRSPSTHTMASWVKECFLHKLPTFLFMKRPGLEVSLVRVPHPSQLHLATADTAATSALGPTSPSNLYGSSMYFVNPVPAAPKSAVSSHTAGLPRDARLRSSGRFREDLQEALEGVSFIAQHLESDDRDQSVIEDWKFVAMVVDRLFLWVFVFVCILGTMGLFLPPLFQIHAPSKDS
Setting [3] is: read-out: Dopamine Release Ecmax.
[4] abbreviates: maximal activation as percentage of that induced by (S)-(-)-nicotine.
Setting [5] is: read-out: Dopamine Release Ecmax, amount released relative to (S)-(-)-nicotine on a percentage basis.

T1 sequence (P02708 21-457): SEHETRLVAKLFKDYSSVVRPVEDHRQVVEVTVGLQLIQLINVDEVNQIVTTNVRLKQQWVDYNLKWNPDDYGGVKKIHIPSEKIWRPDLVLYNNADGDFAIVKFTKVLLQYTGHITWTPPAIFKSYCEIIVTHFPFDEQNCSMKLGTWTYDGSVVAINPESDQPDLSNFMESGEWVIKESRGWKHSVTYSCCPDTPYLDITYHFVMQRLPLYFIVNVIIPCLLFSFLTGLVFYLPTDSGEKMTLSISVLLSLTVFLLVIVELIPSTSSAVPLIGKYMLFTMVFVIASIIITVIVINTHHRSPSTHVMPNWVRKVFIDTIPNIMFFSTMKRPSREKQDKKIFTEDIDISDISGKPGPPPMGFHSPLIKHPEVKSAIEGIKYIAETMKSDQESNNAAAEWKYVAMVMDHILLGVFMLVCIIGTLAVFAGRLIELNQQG
T1 sequence (P11230 24-501 partner): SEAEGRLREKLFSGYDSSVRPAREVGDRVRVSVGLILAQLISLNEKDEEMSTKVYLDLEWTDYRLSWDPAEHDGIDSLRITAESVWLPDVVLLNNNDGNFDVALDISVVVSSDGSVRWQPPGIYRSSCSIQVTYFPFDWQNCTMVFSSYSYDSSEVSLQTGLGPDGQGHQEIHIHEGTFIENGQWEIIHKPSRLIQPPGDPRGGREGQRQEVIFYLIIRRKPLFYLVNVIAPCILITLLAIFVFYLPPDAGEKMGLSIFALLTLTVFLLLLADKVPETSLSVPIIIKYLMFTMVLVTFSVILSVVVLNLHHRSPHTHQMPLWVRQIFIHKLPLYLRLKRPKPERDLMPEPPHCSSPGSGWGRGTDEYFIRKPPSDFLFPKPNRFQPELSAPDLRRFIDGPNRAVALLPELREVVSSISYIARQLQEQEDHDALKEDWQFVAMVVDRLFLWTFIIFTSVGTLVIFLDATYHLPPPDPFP
T1 sequence (Q07001 22-517): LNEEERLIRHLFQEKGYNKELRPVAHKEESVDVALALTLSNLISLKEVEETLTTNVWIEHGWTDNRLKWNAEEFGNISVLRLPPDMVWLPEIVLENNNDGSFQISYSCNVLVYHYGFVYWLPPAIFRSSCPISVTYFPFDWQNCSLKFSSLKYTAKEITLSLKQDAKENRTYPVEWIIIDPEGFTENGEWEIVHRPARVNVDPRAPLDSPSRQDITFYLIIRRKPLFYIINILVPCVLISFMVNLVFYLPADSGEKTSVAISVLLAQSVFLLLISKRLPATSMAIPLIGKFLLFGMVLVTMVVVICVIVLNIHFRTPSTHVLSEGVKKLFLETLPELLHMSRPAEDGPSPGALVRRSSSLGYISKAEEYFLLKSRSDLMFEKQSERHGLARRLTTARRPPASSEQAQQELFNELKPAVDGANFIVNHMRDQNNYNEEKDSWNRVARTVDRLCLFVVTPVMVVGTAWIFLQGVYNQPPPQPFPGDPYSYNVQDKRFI
T1 sequence (P07510 23-517): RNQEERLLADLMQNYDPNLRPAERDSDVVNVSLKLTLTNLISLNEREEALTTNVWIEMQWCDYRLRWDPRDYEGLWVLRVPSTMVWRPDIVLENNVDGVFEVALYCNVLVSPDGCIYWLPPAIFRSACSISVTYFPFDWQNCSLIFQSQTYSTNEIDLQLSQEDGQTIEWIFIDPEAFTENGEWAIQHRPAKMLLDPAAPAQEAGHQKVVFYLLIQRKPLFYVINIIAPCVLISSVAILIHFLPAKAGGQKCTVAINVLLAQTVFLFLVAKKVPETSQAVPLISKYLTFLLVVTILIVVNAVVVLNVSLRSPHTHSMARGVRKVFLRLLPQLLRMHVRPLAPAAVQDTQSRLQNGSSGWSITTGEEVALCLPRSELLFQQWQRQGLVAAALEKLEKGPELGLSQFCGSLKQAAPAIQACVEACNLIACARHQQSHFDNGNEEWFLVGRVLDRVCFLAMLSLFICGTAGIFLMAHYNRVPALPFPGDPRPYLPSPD

By EC50 is commonly meant the concentration giving half of the maximal effect. In the case of `c1cncc(C2CC3CCN2CC3)c1` (racemic) [Sample No. 1, (+/−)-1-aza-2-(3-pyridyl)bicyclo[2.2.2]octane], the EC50 with dopamine release stood at 0.002 µM. Further, the Emax in the assay with dopamine release (setting [3]) turned out to be 40%; in assay [2], 85%. Moreover, the “Muscle Effect Ecmax” value in assay [1] is 110%.

With `Brc1cncc(C2CC3CCN2CC3)c1` (racemic) [Sample No. 2], in the assay with dopamine release, the “Dopamine Release Ecmax” value came to 43% and the EC50 came to 0.002 µM. In addition, in assay [1] (setting [4]), the “Muscle Effect Ecmax” value is on record as 133%. In addition, the Emax in assay [2] was found to be 106%.

For `c1cncc([C@H]2C[C@@H]3CCN2C3)c1` (relative stereo) [Sample No. 3, exo 1-aza-2-(3-pyridyl)bicyclo[2.2.1]heptane], the results for the EC50 (with dopamine release; in assay [1]) were 0.006 µM and 0.1 µM, respectively. For the same compound, the results for the Emax (with dopamine release (setting [5]); in assay [2]) were 130% and 100%, respectively. The “Muscle Effect Ecmax” value in assay [1] (setting [4]) was found to be 130%.

Take `c1cncc([C@@H]2C[C@@H]3CCN2C3)c1` (relative stereo) [Sample No. 4, endo-1-aza-2-(3-pyridyl)bicyclo[2.2.1]heptane]: in the assay with dopamine release, the “Dopamine Release Ecmax” value is listed as 114% and the EC50 stood at 0.033 µM. Further, the “Muscle Effect Ecmax” value in assay [1] (setting [4]) is on record as 130%. In addition, in assay [1] (read-out: Muscle Effect EC50), the EC50 was 0.1 µM.

For the compound `c1cncc(C2C3CCN2CC3)c1` (stereo not drawn) [Sample No. 5, 1-aza-7-(3-pyridyl)bicyclo[2.2.1]heptane], the concentration giving a half-maximal response (EC50) with dopamine release is 0.004 µM; in assay [1], 0.3 µM. Also, the figures for the Emax (with dopamine release (setting [5]); in assay [2]) were 93% and 120%, respectively. For the same compound, the “Muscle Effect Ecmax” value in assay [1] (setting [4]) was 130%.

For the compound `Nc1cncc(C2CC3CCN2CC3)c1` (stereo not drawn) [Sample No. 6, 5-(1-azabicyclo[2.2.2]oct-2-yl-3-(amino)pyridinetrihydrochloride], in the assay on dopamine release, the “Dopamine Release Ecmax” value turned out to be 43% and the EC50 is 0.007 µM. Further, the “amounts causing muscle effects and effects upon ganglia relative to those required to cause dopamine release” value in the assay on dopamine release (selectivity of dopamine release over muscle and ganglion effects) is “many times”. Also, in assay [1] (setting [4]), the “Muscle Effect Ecmax” value is 100%. Moreover, the EC50 in assay [1] (read-out: Muscle Effect EC50) was 3 µM. In assay [2] (setting [4]), the Emax was 75%.

In the case of `CCOc1cncc(C2CC3CCN2CC3)c1.Cl.Cl` (stereo not drawn) [Sample No. 7, 5-(1-azabicyclo[2.2.2]oct-2-yl)-3-(ethoxy)pyridine dihydrochloride], the EC50 in the assay with dopamine release worked out at 0.005 µM; in assay [1] it was 0.7 µM. The values for the Emax (in the assay with dopamine release (setting [5]); in assay [2]) were 40% and 86%, respectively. For the same compound, in assay [1] (setting [4]), the “Muscle Effect Ecmax” value worked out at 137%.

As to `CC(C)Oc1cncc(C2CC3CCN2CC3)c1` (stereo not drawn) [Sample No. 8, 5-(1-azabicyclo[2.2.2]oct-2-yl-3-(isopropyloxy)pyridinedihydrochloride], in assay [1] (read-out: Muscle Effect EC50), the concentration for a half-maximal effect (EC50) amounted to 3 µM. Further, in assay [2], the Emax is 94%.

With `CN1CCC[C@H]1c1cccnc1` [Sample No. C-1, (S)-(−)-nicotine, reference compound], in the assay with dopamine release, the EC50 was determined as 0.115 µM. Further, the Emax in the assay with dopamine release (setting [3]) came to 100%. Moreover, in assay [1], the concentration giving a half-maximal response (EC50) came to 60 µM and the “Muscle Effect Ecmax” value is 100%.
